{"source": "ChEMBL document CHEMBL1158413", "about": "“Design, synthesis and evaluations of acridone derivatives using Candida albicans--search for MDR modulators led to the identification of an anti-candidiasis agent” (2009)", "key": {"[1]": {"system": "Candida albicans", "assay": "Antifungal activity against Candida albicans CAI4 after 48 hrs", "format": "functional", "details": "CAI4, 48 h"}, "[2]": {"system": "DC3F/ADX", "assay": "Binding affinity to P-gp isolated from chinese hamster DC3F/ADX cells assessed as increase in ADP formation at 0.05 uM by drug-P-gp interaction assay relative to basal", "format": "cell-free", "details": "Cricetulus griseus"}, "[3]": {"system": "DC3F/ADX", "assay": "Binding affinity to P-gp isolated from chinese hamster DC3F/ADX cells assessed as increase in ADP formation by drug-P-gp interaction assay relative to basal", "format": "cell-free", "details": "Cricetulus griseus"}, "[4]": {"system": "Candida albicans", "assay": "Antifungal activity against Candida albicans CAI4 at 200 ug/disk after 24 hrs by disk diffusion assay", "format": "functional", "details": "CAI4, 24 h, read-out: DIZ"}, "[5]": {"system": "Candida albicans", "assay": "Antifungal activity against Candida albicans CAI4 at 0.313 mg/ml after 48 hrs by spot assay", "format": "functional, organism-based"}, "[6]": {"system": "Candida albicans", "assay": "Inhibition of cell-wall integrity in Candida albicans CAI4 assessed as increase in Rhodamine-6G efflux at 230 ug/ml in absence of glucose", "format": "functional, organism-based"}, "[7]": {"system": "Candida albicans", "assay": "Inhibition of cell-wall integrity in Candida albicans CAI4 assessed as increase in Rhodamine-6G influx at 230 ug/ml", "format": "functional, organism-based"}, "[8]": {"system": "Candida albicans", "assay": "Antifungal activity against Candida albicans CAI4 at 160 ug/ml in presence of cell-wall toxin CFW", "format": "functional, organism-based"}, "[9]": {"system": "Candida albicans", "assay": "Antifungal activity against Candida albicans CAI4 at 160 ug/ml in presence of cell-wall toxin CR", "format": "functional, organism-based"}, "[10]": {"system": "Candida albicans", "assay": "Inhibition of cell-wall integrity in Candida albicans CAI4 assessed as ratio of glucose/ATP-driven Rhodamine-6G efflux to Rhodamine-6G efflux in absence of glucose/ATP at 230 ug/ml relative to control", "format": "functional, organism-based"}, "[11]": {"system": "Candida albicans", "assay": "Antifungal activity against Candida albicans CAI4 at 0.2 mg/ml after 48 hrs by spot assay", "format": "functional, organism-based"}, "[12]": {"system": "Candida albicans", "assay": "Antifungal activity against Candida albicans CAI4 at 0.5 mg/ml after 48 hrs by spot assay", "format": "functional, organism-based"}, "[13]": {"system": "Candida albicans", "assay": "Antifungal activity against Candida albicans CAI4 at 6 ug/disk after 24 hrs by disk diffusion assay", "format": "functional", "details": "CAI4, 24 h, read-out: DIZ"}}, "note": "Calls of active or inactive are those of the source. The rule behind the calls is not given here.", "data": [{"compound": "O=C(O)c1cccc2c(=O)c3ccccc3n(CC(O)CN3CCC(N4CCCCC4)CC3)c12", "note": "(configuration not stated)", "values": [{"measurement": "MIC80", "setting": "[1]", "result": 234, "unit": "µg/mL"}, {"measurement": "Activity", "setting": "[2]", "result": 33, "unit": "%"}, {"measurement": "Activity", "setting": "[3]", "result": "Active"}, {"measurement": "zone of inhibition at 200 µg/disc", "setting": "[4]", "result": 10, "unit": "mm"}, {"measurement": "Activity", "setting": "[5]", "result": "Active"}, {"measurement": "Activity", "setting": "[6]", "result": "Active"}, {"measurement": "Activity", "setting": "[7]", "result": "Active"}, {"measurement": "Activity", "setting": "[8]", "result": "Active"}, {"measurement": "Activity", "setting": "[9]", "result": "Active"}, {"measurement": "Activity", "setting": "[10]", "result": "inactive"}]}, {"compound": "Cc1cccc2c1c(=O)c1ccccc1n2CC(O)CN1CCCC1", "note": "(configuration not stated)", "values": [{"measurement": "Activity", "setting": "[3]", "result": "Active"}]}, {"compound": "O=C(O)c1cccc2c(=O)c3ccccc3n(CC(O)CN3CCCCC3)c12", "note": "(configuration not stated)", "values": [{"measurement": "MIC80", "setting": "[1]", "result": 405, "unit": "µg/mL"}, {"measurement": "Activity", "setting": "[3]", "result": "Active"}, {"measurement": "Activity", "setting": "[11]", "result": "inactive"}, {"measurement": "Activity", "setting": "[12]", "result": "inactive"}]}, {"compound": "Cc1cccc2c1c(=O)c1ccccc1n2CC(O)CN1CCCCC1", "note": "(configuration not stated)", "values": [{"measurement": "Activity", "setting": "[3]", "result": "Active"}]}, {"compound": "O=C(O)c1cccc2c(=O)c3ccccc3n(CC(O)CN3CCCC3)c12", "note": "(configuration not stated)", "values": [{"measurement": "Activity", "setting": "[3]", "result": "Active"}]}, {"compound": "Clc1ccc(COC(Cn2ccnc2)c2ccc(Cl)cc2Cl)c(Cl)c1", "note": "(configuration not stated) [MICONAZOLE]", "values": [{"measurement": "zone of inhibition at 6 µg/disc", "setting": "[13]", "result": 12, "unit": "mm"}]}, {"compound": "O=C(O)c1cccc2c(=O)c3ccccc3n(CC(O)CN3CCOCC3)c12", "note": "(configuration not stated)", "values": [{"measurement": "MIC80", "setting": "[1]", "result": 132, "unit": "µg/mL"}, {"measurement": "Activity", "setting": "[3]", "result": "Active"}, {"measurement": "Activity", "setting": "[11]", "result": "inactive"}, {"measurement": "Activity", "setting": "[12]", "result": "inactive"}]}, {"compound": "Cc1cccc2c1c(=O)c1ccccc1n2CC(O)CN1CCC(N2CCCCC2)CC1", "note": "(configuration not stated)", "values": [{"measurement": "Activity", "setting": "[3]", "result": "Active"}]}, {"compound": "O=C(O)c1cccc2c(=O)c3ccccc3[nH]c12", "values": [{"measurement": "Activity", "setting": "[3]", "result": "Active"}]}, {"compound": "Cc1cccc2c1c(=O)c1ccccc1n2CC(O)CN1CCOCC1", "note": "(configuration not stated)", "values": [{"measurement": "Activity", "setting": "[3]", "result": "Active"}]}, {"compound": "OC(Cn1cncn1)(Cn1cncn1)c1ccc(F)cc1F", "note": "[FLUCONAZOLE]", "values": [{"measurement": "zone of inhibition at 6 µg/disc", "setting": "[13]", "result": 15, "unit": "mm"}]}, {"compound": "O=C(O)c1cccc2c(=O)c3ccccc3n(CC3CO3)c12", "note": "(configuration not stated)", "values": [{"measurement": "Activity", "setting": "[3]", "result": "Active"}]}]}
